Experiments:
recombinant hCD38 = target: T1, recombinant hCD38 (Homo sapiens, UniProt P28907); assay: Metabolic assay of NAD+ (degradation by recombinant hCD38); format: biochemical; settings: sUA 100, 200 or 500 μM; NAD+ 200 μM; hCD38 20 ng/mL; Figure 3F
T1 construct: the commercial recombinant hCD38 without a transmembrane region was partially used in this study; purchased Sino Biological 10818-H08H
T1 sequence (P28907 43-300 limits assumed): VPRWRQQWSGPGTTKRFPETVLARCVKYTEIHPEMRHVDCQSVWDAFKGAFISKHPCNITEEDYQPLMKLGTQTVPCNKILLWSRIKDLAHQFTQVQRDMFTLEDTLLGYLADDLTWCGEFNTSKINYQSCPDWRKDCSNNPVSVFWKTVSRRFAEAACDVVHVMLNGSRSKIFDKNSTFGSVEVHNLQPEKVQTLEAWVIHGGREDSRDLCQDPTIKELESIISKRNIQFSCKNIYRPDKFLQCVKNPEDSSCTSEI
Description: NAD^+ degradation by recombinant hCD38 was detected in hydrolase reaction buffer. At first, sUA (100, 200, and 500 μM) or other ligands at 500 μM in hydrolase reaction buffer (250 mM sucrose, 40 mM Tris) was freshly prepared, then the pH was immediately adjusted to 7.4 by HCl. Recombinant hCD38 was added into the buffer of experimental groups at 20 ng/mL, then the buffer was maintained at 37°C. The substrate NAD^+ was dissolved in hydrolase reaction buffer (pH 7.4) at 10 mM, and the pH was further adjusted to 7.4. The reaction was started with the addition of NAD^+ in the buffer for each group (final concentration is 200 μM), including control group (recombinant hCD38 free). All the buffers were incubated at 37°C with constant stirring. […]
As mentioned above, samples (cells, tissues, blood, or reaction buffer) were treated with ice-cold PCA, after extraction and centrifugation, the collected supernatant was appropriately diluted in 5% ice-cold PCA when applicable, and then was vortexed for 30 s and centrifuged at 15,000 rpm, 4°C for 5 min. […] All the samples after handling were immediately analyzed in this study without freezing and thawing.
(§1) The LC-MS/MS system consisted of a triple quadrupole LCMS-8050 (Shimadzu) and an LC-30A system (Shimadzu). […] NAD^+ and NMN were measured independently in this study, as their peaks were hardly separated within a short time.

[1] = Solubility and crystal precipitation in solution; format: physicochemical
Description: Guanosine was dissolved in DMSO and diluted in the reaction buffer for subsequent assays.
MSU crystals were prepared by the recrystallization of oversaturated sUA according to a previous report ([Martinon et al., 2006]). Improper preparation of sUA solution may introduce crystals to cause false-positive or false-negative results. […] In this study, the sUA solution was prepared according to an improved protocol ([Ma et al., 2020]). […] Then, sUA solution was immediately filtered by 0.2 μm filters and diluted to experimental concentration (up to 10 mg/dL, 595 μM) for cell experiments. […]

THP-1 cells = assay: Intracellular NAD+ assay in THP-1 cells; format: cell-based, human; settings: sUA 0–10 mg/dL pre-incubation 2 hr, then stimulation 6 hr
Description: Naïve THP-1 cells were pre-incubated with sUA (0–10 mg/dL) in RPMI-1640 medium containing 1% FBS for 2 hr, then the cells were washed twice with sterile PBS and stimulated with MSU crystals, cLPS, zymosan, or ATP for 6 hr. Subsequently, the cells were washed twice with sterile PBS, and then a total of 100 μL 5% ice-cold PCA was used to extract NAD^+ from cells in each well and medium as mentioned above.
As mentioned above, samples (cells, tissues, blood, or reaction buffer) were treated with ice-cold PCA, after extraction and centrifugation, the collected supernatant was appropriately diluted in 5% ice-cold PCA when applicable, and then was vortexed for 30 s and centrifuged at 15,000 rpm, 4°C for 5 min. Afterward, 30 μL supernatant was added into 200 μL 5 mM ammonium formate containing internal standards at indicated concentrations. Then, all the samples were vortexed for 30 s and centrifuged at 15,000 rpm, 4°C for 5 min again, the final supernatant was used for subsequent measurement. All the samples after handling were immediately analyzed in this study without freezing and thawing.
as §1

Compound: O=c1[nH]c(=O)c2[nH]c(=O)[nH]c2[nH]1 [sUA, uric acid]
- NAD+ availability, degradation by recombinant hCD38 (recombinant hCD38): increased NAD^+ availability
- Crystal precipitation in stock solution ([1]; 5 mg/mL in NaOH without pH adjustment, 2-month storage at 4°C): Visible crystals were observed
- Crystal precipitation in stock solution ([1]; 50 mg/mL in NaOH without pH adjustment): Crystals were immediately precipitated after dissolution
- Crystal precipitation in high-concentration stock solutions ([1]; long-term storage at 4°C): promoted crystal precipitation
- Intracellular NAD+ (THP-1 cells): boosted intracellular NAD^+

Source: paper PMC11554305, “Functional identification of soluble uric acid as an endogenous inhibitor of CD38” (eLife, 2024)
